Legend:
[1] = biological target: Tyrosine-protein phosphatase non-receptor type 6 (Homo sapiens, UniProt P29350); test: Inhibition of wild-type SHP1 (2 to 595 residues) (unknown origin) using DiFMUP as substrate and measured by biochemical assay
[2] = biological target: T1, Tyrosine-protein phosphatase non-receptor type 1 (Homo sapiens, UniProt P18031); test: Inhibition of wild-type PTP1B (2 to 435 residues) (unknown origin) using DiFMUP as substrate and measured by biochemical assay
T1 sequence (P18031 whole entry): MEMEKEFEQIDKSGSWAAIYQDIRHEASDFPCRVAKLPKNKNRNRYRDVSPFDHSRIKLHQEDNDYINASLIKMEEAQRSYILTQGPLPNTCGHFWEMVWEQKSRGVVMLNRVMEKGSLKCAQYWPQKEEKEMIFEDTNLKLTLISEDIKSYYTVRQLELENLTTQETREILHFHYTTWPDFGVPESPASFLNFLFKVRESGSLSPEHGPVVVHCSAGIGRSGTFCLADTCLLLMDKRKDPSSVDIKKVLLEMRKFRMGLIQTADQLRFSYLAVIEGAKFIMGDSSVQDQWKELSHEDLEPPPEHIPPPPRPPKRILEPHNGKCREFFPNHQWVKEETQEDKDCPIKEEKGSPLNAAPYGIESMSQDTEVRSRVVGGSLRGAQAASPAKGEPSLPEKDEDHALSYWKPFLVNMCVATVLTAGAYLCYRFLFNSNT

[3] = Inhibition of SHP2 E76A mutant (unknown origin); set-up: species or system Homo sapiens
[4] = biological target: T2, Tyrosine-protein phosphatase non-receptor type 11 (Homo sapiens, UniProt Q06124)
T2 sequence (Q06124 whole entry): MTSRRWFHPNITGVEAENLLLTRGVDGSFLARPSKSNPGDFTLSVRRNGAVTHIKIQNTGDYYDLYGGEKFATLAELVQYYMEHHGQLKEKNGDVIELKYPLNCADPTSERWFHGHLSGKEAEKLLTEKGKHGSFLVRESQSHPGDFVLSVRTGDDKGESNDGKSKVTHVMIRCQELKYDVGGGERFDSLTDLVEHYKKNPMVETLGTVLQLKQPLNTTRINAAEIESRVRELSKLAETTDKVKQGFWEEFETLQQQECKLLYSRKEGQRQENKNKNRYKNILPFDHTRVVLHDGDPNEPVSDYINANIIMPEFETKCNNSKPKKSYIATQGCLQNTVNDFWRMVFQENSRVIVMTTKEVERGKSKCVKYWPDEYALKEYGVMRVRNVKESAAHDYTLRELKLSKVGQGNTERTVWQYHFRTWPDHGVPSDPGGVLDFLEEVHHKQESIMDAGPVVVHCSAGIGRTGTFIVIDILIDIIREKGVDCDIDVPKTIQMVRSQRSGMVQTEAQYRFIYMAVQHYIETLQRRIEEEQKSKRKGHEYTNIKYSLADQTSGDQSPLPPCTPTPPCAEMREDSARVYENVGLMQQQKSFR

[5] = biological target: T2, Tyrosine-protein phosphatase non-receptor type 11; remark: listed apart in the source
Description: Allosteric inhibition of recombinant human SHP2 PTP domain (237 to 535 residues) using DiFMUP as substrate preincubated for 30 mins and followed by substrate addition and measured by microplate reader method

[6] = biological target: T2, Tyrosine-protein phosphatase non-receptor type 11; test: Reversible inhibition of wild-type human SHP2 using DiFMUP as substrate and measured by jump dilution assay

Sequence of Tyrosine-protein phosphatase non-receptor type 6 (P29350 whole entry, the tested form may be a part): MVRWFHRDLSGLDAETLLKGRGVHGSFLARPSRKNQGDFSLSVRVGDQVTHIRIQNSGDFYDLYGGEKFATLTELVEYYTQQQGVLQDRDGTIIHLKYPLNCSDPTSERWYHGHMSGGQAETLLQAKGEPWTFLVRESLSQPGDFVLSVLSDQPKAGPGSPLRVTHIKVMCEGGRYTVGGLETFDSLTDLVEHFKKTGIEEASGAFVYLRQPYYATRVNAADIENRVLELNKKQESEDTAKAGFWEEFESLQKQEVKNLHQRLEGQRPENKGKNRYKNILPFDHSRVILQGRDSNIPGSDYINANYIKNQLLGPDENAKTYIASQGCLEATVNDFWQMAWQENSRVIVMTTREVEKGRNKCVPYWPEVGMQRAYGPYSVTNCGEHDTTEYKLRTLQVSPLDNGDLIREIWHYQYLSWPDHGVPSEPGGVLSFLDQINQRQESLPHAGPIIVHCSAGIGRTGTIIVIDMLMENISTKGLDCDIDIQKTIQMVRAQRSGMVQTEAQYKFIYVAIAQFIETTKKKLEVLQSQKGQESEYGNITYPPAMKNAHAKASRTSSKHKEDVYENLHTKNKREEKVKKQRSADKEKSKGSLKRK

IC50 [4] [µM] | IC50 [5] [µM] | Structure (SMILES) | other results
 |  | CC1(N)CCN(c2cnc(-c3cccc(Cl)c3Cl)c(N)n2)CC1 | IC50 [1]: > 100 µM; IC50 [2]: > 100 µM
 |  | CC1(N)CCN(c2nc(-c3ccc4cc(Br)ccc4c3)cs2)CC1 | IC50 [3]: 0.71 µM
0.098 | > 10 | CC1(N)CCN(c2cnc(Sc3ccccc3Cl)c(N)n2)CC1 | 
0.025 | > 10 | CC1(N)CCN(c2cnc(Sc3cccc(Cl)c3Cl)c(N)n2)CC1 | 
 | > 10 | CC1(CN)CCN(c2cnc(Sc3cccc(Cl)c3Cl)c(N)n2)CC1 | Ki [6]: 0.022 µM; IC50 [1]: > 100 µM; IC50 [2]: > 100 µM
60 |  | COc1cccc(-c2nnc3n(Cc4ccc(C(=O)N5CCC[C@H]5C(=O)O)cc4Cl)c(=O)c4ccccc4n23)c1O | 
0.175 | > 10 | CC1(N)CCN(c2cnc(Sc3cccc4ccccc34)c(N)n2)CC1 | 
9.55 | > 10 | CC1(N)CCN(c2cnc(SC3CCCCC3)c(N)n2)CC1 | 
13.7 | > 10 | CC1(O)CCN(c2cnc(-c3cccc(Cl)c3Cl)c(N)n2)CC1 | 
2.03 | > 10 | Nc1nc(N2CC[C@H](N)C2)cnc1-c1cccc(Cl)c1Cl | 
0.695 | > 10 | CN1CCN(c2cnc(-c3cccc(Cl)c3Cl)c(N)n2)CC1 | 
0.747 | > 10 | CC1(N)CCN(c2cnc(Sc3cccc(Cl)c3)c(N)n2)CC1 | 
0.11 | > 10 | NCC1CCN(c2cnc(Sc3cccc(Cl)c3Cl)c(N)n2)CC1 | 
5.71 | > 10 | CC1(N)CCN(c2cnc(-c3cccc(F)c3F)c(N)n2)CC1 | 
0.976 | > 10 | CC1(N)CCN(c2cnc(Sc3ccc4ccccc4c3)c(N)n2)CC1 | 
0.178 | > 10 | CC1(N)CCN(c2cnc(Sc3ccccc3C(F)(F)F)c(N)n2)CC1 | 

IC50 [4] [µM] | IC50 [5] [µM] | Structure (SMILES) | other results
0.811 | > 10 | CC1(N)CCN(c2cnc(Sc3ccccc3)c(N)n2)CC1 | 
0.079 | > 10 | COc1ccccc1Sc1ncc(N2CCC(C)(N)CC2)nc1N | 
1.8 | > 10 | Cc1ccccc1Sc1ncc(N2CCC(C)(N)CC2)nc1N | 
14.8 | > 10 | CC1(N)CCN(c2cnc(-c3ccc(C#N)cc3)c(N)n2)CC1 | 
9.03 | > 10 | Cc1ccc(-c2ncc(N3CCC(C)(N)CC3)nc2N)cc1 | 
0.484 | > 10 | CC1(N)CCN(c2cnc(Sc3ccccc3F)c(N)n2)CC1 | 
0.712 | > 10 | Nc1nc(N2CCNCC2)cnc1-c1cccc(Cl)c1Cl | 
0.059 | > 10 | CC1(N)CCN(c2cnc(Sc3ccccc3Br)c(N)n2)CC1 | 
2.77 | > 10 | Nc1nc(N2CCC(N)CC2)cnc1-c1cccc(Cl)c1Cl | 
6.18 | > 10 | Nc1nc(N2CCC(O)CC2)cnc1-c1cccc(Cl)c1Cl | 
1.64 | > 10 | CNC1CCN(c2cnc(-c3cccc(Cl)c3Cl)c(N)n2)CC1 | 
0.858 | > 10 | NCCC1CCN(c2cnc(-c3cccc(Cl)c3Cl)c(N)n2)CC1 | 
10.8 | > 10 | CC1(N)CCN(c2cnc(SCc3ccccc3)c(N)n2)CC1 | 
3.84 | > 10 | CC1(N)CCN(c2cnc(Sc3ccc(Cl)cc3)c(N)n2)CC1 | 
5.6 | > 10 | CC1(N)CCN(c2cnc(SCc3ccccc3Cl)c(N)n2)CC1 | 
9.66 | > 10 | CN(CCN)c1cnc(-c2cccc(Cl)c2Cl)c(N)n1 | 
